Source: US12227509B2, “Dihydropyrazolopyrazinone derivative having MGAT2 inhibitory activity” (Shionogi & Co., Ltd., priority 2019, dated 2025)

What follows are compounds tested against recombinant human MGAT2 (Homo sapiens (Human), UniProt Q3SYC2) (assay: Measurement of human MGAT2 inhibitory activity). Settings: concentration exhibiting 50% enzyme inhibition; recombinant human MGAT2, 2-Oleoylglycerol/Oleoyl-CoA.
Format: biochemical
Description: A full-length human MGAT2 gene to which a Flag-tag had been added at the N-terminal was inserted into pFastBac (from Invitrogen). A recombinant baculovirus was produced in accordance with the protocol for a Bac-to-Bac baculovirus expression system (produced by Invitrogen), and Sf-9 cells were infected therewith. The cells were collected and sonicated, and then the membrane fraction was collected through centrifugation. Western blotting analysis with an anti-Flag antibody was performed for the membrane fraction to confirm expression, and the membrane fraction was used as a recombinant human MGAT2 enzyme solution.
Solutions of the compounds of the present invention in DMSO were each aliquoted into 0.2-μL portions in a 384-well polystyrene microplate produced by Corning Incorporated, and 5 μL of an enzyme solution prepared with an assay buffer (100 mmol/L phosphate buffer (pH 7.4) containing 2 mmol/L DTT) and 5 μL of a substrate solution (100 mmol/L phosphate buffer (pH 7.4), 30 μmol/L 2-Oleoylglycerol, 10 μmol/L Oleoyl-CoA) were added thereto, and the resultant was stirred and centrifuged, and incubated in a moist chamber at room temperature for 1 hour. After enzymatic reaction, 50 μL of a quenching solution (containing 0.2 μmol/L Diolein-d5, 0.4% formic acid, and 50% isopropanol) containing Internal Standard (IS) was added to terminate the reaction, and the resultant was sealed in a plate produced by Shimadzu GLC Ltd., and then stirred and centrifuged, and measurement was performed by using an electrospray ionization method with a RapidFire360 and Agilent 6550 Q-TOF mass spectrometer. Diolein as a reaction product (P) of 2-Oleoylglycerol as the substrate and an ammonium adduct ion of the IS were detected, and the peak intensity ratio, P/IS, was calculated from the peak heights to evaluate the inhibitory activity. Inhibitory activities with/without addition of enzyme were defined as Control (+)/Control (−), respectively, and the respective % inhibitions were defined as 0% inhibition and 100% inhibition. The inhibitory activity was calculated from formula below with TIBCO Spotfire (produced by TIBCO Software Inc.)
Inhibitory activity (%)=[1−{Sample−Control (−)}/{Control (+)−Control (−)}]*100 where Sample indicates a peak intensity ratio: P/IS, when the compound of the present invention was added.

recombinant human MGAT2, sequence (Q3SYC2 whole entry): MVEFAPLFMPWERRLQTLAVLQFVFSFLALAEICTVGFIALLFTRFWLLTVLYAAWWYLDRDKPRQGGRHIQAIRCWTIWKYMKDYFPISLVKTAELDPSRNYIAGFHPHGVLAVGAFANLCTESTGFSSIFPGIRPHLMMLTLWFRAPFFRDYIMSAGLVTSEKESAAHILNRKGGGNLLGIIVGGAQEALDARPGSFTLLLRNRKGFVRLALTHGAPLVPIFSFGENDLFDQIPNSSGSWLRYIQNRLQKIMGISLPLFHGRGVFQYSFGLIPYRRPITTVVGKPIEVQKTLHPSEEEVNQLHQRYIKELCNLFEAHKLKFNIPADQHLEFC

In order of rising IC50:
1. CS(=O)(=O)CC(=O)Nc1c(-c2ccc(Cl)cn2)nn2c1C(=O)N[C@@]1(CCc3cc(OCC(F)(F)F)ccc31)C2 [Compound I-60]  0.527 nM
2. CS(=O)(=O)CC(=O)Nc1c(-c2cc(F)c(F)c(F)c2)nn2c1C(=O)N[C@]1(CCc3cc(OCC(F)(F)F)ccc31)C2 [Compound I-92]  0.585 nM
3. CS(=O)(=O)CC(=O)Nc1c(-c2cc(F)c(F)c(F)c2)nn2c1C(=O)N[C@@]1(CCc3cc(OCC(F)(F)F)ccc31)C2 [Compound I-36]  0.617 nM
4. CS(=O)(=O)CC(=O)Nc1c(-c2ccc(F)c(F)c2)nn2c1C(=O)N[C@@]1(CCOc3cc(OCC(F)(F)F)ccc31)C2 [Compound I-67]  0.671 nM
5. CNS(=O)(=O)CC(=O)Nc1c(-c2ccc(C)cn2)nn2c1C(=O)N[C@]1(CCc3cc(OCC(F)(F)F)ccc31)C2 [Compound I-41]  1.04 nM
6. CNS(=O)(=O)CC(=O)Nc1c(-c2ccc(C)cn2)nn2c1C(=O)N[C@@]1(CCc3cc(OCC(F)(F)F)ccc31)C2 [Compound I-45]  1.09 nM
7. CS(=O)(=O)CC(=O)Nc1c(CCC2CC2)nn2c1C(=O)NC1(CN(c3ccc(C(F)(F)F)cc3)C1)C2 [Compound I-64]  1.26 nM
8. Cc1ccc(-c2nn3c(c2NC(=O)CS(C)(=O)=O)C(=O)N[C@@]2(CCc4cc(OCC(F)(F)F)ccc42)C3)cc1F [Compound I-34]  1.36 nM
9. CS(=O)(=O)CC(=O)Nc1c(-c2ccc(C(F)F)cc2)nn2c1C(=O)N[C@@]1(CCc3cc(OCC(F)(F)F)ccc31)C2 [Compound I-24]  1.37 nM
10. CNS(=O)(=O)CC(=O)Nc1c(-c2ccc(C#N)cn2)nn2c1C(=O)N[C@@]1(CCc3cc(OCC(F)(F)F)ccc31)C2 [Compound I-16]  1.44 nM
11. Cc1ccc(-c2nn3c(c2NC(=O)CS(C)(=O)=O)C(=O)N[C@]2(CCc4cc(OCCCC(F)(F)F)ccc42)C3)nc1 [Compound I-75]  1.47 nM
12. CCCCCc1nn2c(c1NC(=O)CS(C)(=O)=O)C(=O)N[C@]1(CCc3cc(OCC(F)(F)F)ccc31)C2 [Compound I-95]  1.48 nM
13. Cc1c(F)cc(-c2nn3c(c2NC(=O)CS(C)(=O)=O)C(=O)N[C@@]2(CCc4cc(OCC(F)(F)F)ccc42)C3)cc1F [Compound I-53]  1.75 nM
14. CS(=O)(=O)CC(=O)Nc1c(-c2ccc(F)c(F)c2)nn2c1C(=O)N[C@]1(CCOc3cc(OCC(F)(F)F)ccc31)C2 [Compound I-71]  1.8 nM
15. CS(=O)(=O)CC(=O)Nc1c(-c2cc(F)cc(F)c2)nn2c1C(=O)N[C@]1(CCc3cc(OCC(F)(F)F)ccc31)C2 [Compound I-98]  2.15 nM
16. CS(=O)(=O)CC(=O)Nc1c(-c2ccc(OC(F)F)cc2)nn2c1C(=O)N[C@]1(CCc3cc(OCC(F)(F)F)ccc31)C2 [Compound I-84]  2.51 nM
17. CS(=O)(=O)CC(=O)Nc1c(-c2cc(F)cc(F)c2)nn2c1C(=O)N[C@@]1(CCc3cc(OCC(F)(F)F)ccc31)C2 [Compound I-50]  2.53 nM
18. CS(=O)(=O)CC(=O)Nc1c(-c2ccc(C#N)cc2)nn2c1C(=O)N[C@]1(CCc3cc(OCC(F)(F)F)ccc31)C2 [Compound I-87]  2.55 nM
19. CS(=O)(=O)CC(=O)Nc1c(CCC2CC2)nn2c1C(=O)N[C@@]1(CCOc3cc(F)cc(F)c31)C2 [Compound I-120]  2.57 nM
20. CCCCCc1nn2c(c1NC(=O)CS(C)(=O)=O)C(=O)N[C@@]1(CCc3cc(OCC(F)(F)F)ccc31)C2 [Compound I-47]  2.73 nM
21. CCS(=O)(=O)CC(=O)Nc1c(-c2ccc(C)cn2)nn2c1C(=O)N[C@@]1(CCc3cc(OCC(F)(F)F)ccc31)C2 [Compound I-127]  2.77 nM
22. CS(=O)(=O)CC(=O)Nc1c(-c2ccc(C3CC3)cc2)nn2c1C(=O)N[C@]1(CCc3cc(OCC(F)(F)F)ccc31)C2 [Compound I-85]  2.88 nM
23. CS(=O)(=O)CC(=O)Nc1c(-c2ccc(F)cn2)nn2c1C(=O)N[C@@]1(CCOc3cc(F)cc(F)c31)C2 [Compound I-119]  2.98 nM
24. Cc1cccc(-c2nn3c(c2NC(=O)CS(C)(=O)=O)C(=O)N[C@@]2(CCc4cc(OCC(F)(F)F)ccc42)C3)c1 [Compound I-21]  3.27 nM
25. CS(=N)(=O)CC(=O)Nc1c(-c2ccc(F)c(F)c2)nn2c1C(=O)N[C@@]1(CCc3cc(OCC(F)(F)F)ccc31)C2 (stereo partly shown) [Compound I-108]  3.43 nM
26. CC(C)c1ccc(-c2nn3c(c2NC(=O)CS(C)(=O)=O)C(=O)N[C@]2(CCc4cc(OCC(F)(F)F)ccc42)C3)cc1 [Compound I-97]  3.51 nM
27. CCOc1ccc2c(c1)CC[C@@]21Cn2nc(-c3ccc(F)cc3)c(NC(=O)CS(C)(=O)=O)c2C(=O)N1 [Compound I-68]  4.04 nM
28. CS(=O)(=O)CC(=O)Nc1c(-c2ccc(OC(F)(F)F)cc2)nn2c1C(=O)N[C@]1(CCc3cc(OCC(F)(F)F)ccc31)C2 [Compound I-83]  4.37 nM
29. CS(=O)(=O)CC(=O)Nc1c(-c2ccc(C3CC3)cc2)nn2c1C(=O)N[C@@]1(CCc3cc(OCC(F)(F)F)ccc31)C2 [Compound I-29]  4.91 nM
30. C[S@@](=N)(=O)CC(=O)Nc1c(-c2cc(F)c(F)c(F)c2)nn2c1C(=O)N[C@@]1(CCc3cc(OCC(F)(F)F)ccc31)C2 (single isomer, unassigned) [Compound I-106]  4.95 nM
31. CS(=O)(=O)CC(=O)Nc1c(-c2ccccn2)nn2c1C(=O)N[C@@]1(CCc3cc(OCC(F)(F)F)ccc31)C2 [Compound I-19]  5.19 nM
32. CS(=O)(=O)CC(=O)Nc1c(CCC(F)(F)F)nn2c1C(=O)N[C@]1(CCc3cc(OCC(F)(F)F)ccc31)C2 [Compound I-102]  5.65 nM
33. COCOc1ccc2c(c1)CCC21Cn2nc(-c3ccc(C#N)cn3)c(NC(=O)CS(C)(=O)=O)c2C(=O)N1 (stereo not shown) [Compound I-54]  5.88 nM
34. CS(=O)(=O)CC(=O)Nc1c(-c2ccc(F)cn2)nn2c1C(=O)N[C@@]1(CCc3cc(F)cc(F)c31)C2 [Compound I-121]  6.02 nM
35. CCOc1ccc2c(c1)CC[C@]21Cn2nc(-c3ccc(F)cc3)c(NC(=O)CS(C)(=O)=O)c2C(=O)N1 [Compound I-116]  6.72 nM
36. CCOc1ccc2c(c1)CC[C@]21Cn2nc(CCC3CC3)c(NC(=O)CS(C)(=O)=O)c2C(=O)N1 [Compound I-103]  7.03 nM
37. Cc1ccc(-c2nn3c(c2NC(=O)C2CS(=O)(=O)C2)C(=O)N[C@]2(CCc4cc(OCC(F)(F)F)ccc42)C3)nc1 [Compound I-40]  7.33 nM
38. N#Cc1ccc(-c2nn3c(c2NC(=O)COC(F)(F)F)C(=O)N[C@]2(CCc4cc(OCC(F)(F)F)ccc42)C3)nc1 [Compound I-12]  9.48 nM
39. CS(=O)(=O)CC(=O)Nc1c(-c2ccc(F)cn2)nn2c1C(=O)N[C@]1(CCc3cc(F)cc(F)c31)C2 [Compound I-146]  9.7 nM
40. CS(=O)(=O)CC(=O)Nc1c(-c2ccc(F)cc2)nn2c1C(=O)N[C@@]1(CCc3cc(F)cc(F)c31)C2 [Compound I-129]  10 nM
41. CS(=O)(=O)CC(=O)Nc1c(CCC2CC2)nn2c1C(=O)N[C@@]1(CCc3cc(F)cc(F)c31)C2 [Compound I-140]  11.1 nM
42. CS(=O)(=O)CC(=O)Nc1c(-c2ccccc2)nn2c1C(=O)N[C@@]1(CCc3cc(OCC(F)(F)F)ccc31)C2 [Compound I-1]  14 nM
43. CCCCCc1nn2c(c1NC(=O)CS(C)(=O)=O)C(=O)N[C@]1(CCc3cc(OCC)ccc31)C2 [Compound I-115]  14.5 nM
44. Cc1cc(F)ccc1-c1nn2c(c1NC(=O)CS(C)(=O)=O)C(=O)N[C@]1(CCc3cc(OCC(F)(F)F)ccc31)C2 [Compound I-91]  19.5 nM
45. COc1ccc(-c2nn3c(c2NC(=O)CS(C)(=O)=O)C(=O)N[C@@]2(CCc4cc(OCC(F)(F)F)ccc42)C3)cc1 [Compound I-26]  20.1 nM
46. CC(C)(O)c1ccc(-c2nn3c(c2NC(=O)CS(C)(=O)=O)C(=O)N[C@@]2(CCc4cc(OCC(F)(F)F)ccc42)C3)cc1 [Compound I-37]  21.2 nM
47. N#Cc1ccc(-c2nn3c(c2NC(=O)CC(F)(F)F)C(=O)N[C@]2(CCc4cc(OCC(F)(F)F)ccc42)C3)nc1 [Compound I-9]  22.5 nM
48. CS(=O)(=O)CC(=O)Nc1c(CCC2CC2)nn2c1C(=O)N[C@]1(CCc3cc(F)cc(F)c31)C2 [Compound I-149]  23.4 nM
49. Cc1ccc(-c2nn3c(c2NC(=O)CS(=O)(=O)N(C)C)C(=O)N[C@@]2(CCc4cc(OCC(F)(F)F)ccc42)C3)nc1 [Compound I-128]  91.9 nM
50. Cc1ccccc1-c1nn2c(c1NC(=O)CS(C)(=O)=O)C(=O)N[C@@]1(CCc3cc(OCC(F)(F)F)ccc31)C2 [Compound I-22]  93.5 nM
51. CS(=O)(=O)CC(=O)Nc1c(-c2ccc(OC3CC3)cc2)nn2c1C(=O)N[C@]1(CCc3cc(OCC(F)(F)F)ccc31)C2 [Compound I-86]  131 nM

Same assay, conditions: concentration exhibiting 50% enzyme inhibition; recombinant human MGAT2, 2-Oleoylglycerol/Oleoyl-CoA; listed as 1-63

In the case of `CS(=O)(=O)CC(=O)Nc1c(CCCC(F)(F)F)nn2c1C(=O)NC1(CCc3cc(OCC(F)(F)F)ccc31)C2` (single isomer, unassigned) [Compound I-63], the IC50 is reported as 1.24 nM.
